Assay results: US20050064501A1, “Medicaments comprising inhibitors of the cell volume-regulated human kinase h-sgk” (PROF. DR. MED. F. LANG, priority 1999, published 2005)
Residue numbers refer to the chain shown, from its start. Names may count otherwise. “Also recorded” adds a separate entry of the source. One block for each molecule: values may come before it.

Assays:
h-sgk expression = experiment: Transcriptional regulation of h-sgk (Northern blot); type: cell-based; settings: FIG. 1; TGFβ1 effect shown after 0.5 to 6 h
Description: (§1) Cells were cultivated in RPMI/5% CO2/10 mM glucose at 37° C., pH 7.4, supplemented with 10% (vol/vol) fetal calf serum (FCS). The cells were grown to 90% confluence and then homogenized in TRIZOL (GIBCO/BRL) (about 0.4×10^6 per sample). Total RNA was prepared in accordance with the manufacturer's instructions. Northern blots were fractionated by electrophoresis through 10 g/l agarose gels with 15 or 20 μg of total RNA with separate control in the presence of 2.4 mol/l formaldehyde. RNA was transferred by vacuum (Appligene Oncor Trans DNA Express Vacuum Blotter, Appligine, Heidelberg, Germany) to positively charged nylon membranes (Boehringer Mannheim, Germany) and crosslinked under ultraviolet light (UV Stratalinker 2400, Stratagene, Heidelberg, Germany). Hybridization was carried out over night with DIG-Easy-Hyb (Boehringer Mannheim) at a probe concentration of 25 μg/l at 50° C. The digoxigenin (DIG)-labeled probes were produced by PCR as described in detail earlier (Waldegger et al. (1997) PNAS 94: 4440-4445). For the autoradiography, the filters were exposed to an X-ray film (Kodak) for an average of 5 min.

biglycan expression = experiment: Transcriptional regulation of biglycan (Northern blot); type: cell-based; settings: FIG. 2; for effect of TGFβ1 on biglycan expression in the presence of the NKCC inhibitor: TGFβ1-stimulated
Description: as §1

NKCC = experiment: 22Na+ tracer flux (furosemide-inhibitable Na+ uptake) in oocytes expressing NKCC with or without h-sgk; type: cell-based, Xenopus laevis; settings: 22Na+ uptake
Description: (§2) Dissection of Xenopus laevis, and the obtaining and treatment of the oocytes has been described in detail earlier (Busch et al. 1992). The oocytes were each injected with 1 ng of cRNA of NKCC, ENaC or MDEG with or without simultaneous injection of h-sgk. It was possible to carry out two-electrode voltage and current clamp experiments 2-8 days after the injection. Na^+ influx which could be inhibited by furosemide through the NKCC was measured by the ^22Na^+ uptake, which was determined with a scintillation counter, into the oocytes. Na^+ currents (ENaC) were filtered at 10 Hz and recorded with a pen recorder. The experiments were normally carried out on the second day after cRNA injection. The bath solution contained: 96 mM NaCl, 2 mM KCl, 1.8 mM CaCl2, 1 mM MgCl2 and 5 mM HEPES at pH 7.5 and the holding potential was −50 mV. The pH was adjusted by titration with HCl or NaOH in all the experiments. The flow rate of the bath liquid was set at 20 ml/min, which ensured a complete change of solution in the measurement chamber within 10-15 s. All the data are stated in the form of arithmetic means ±SEM.

h-sgk = molecular target: T1, h-sgk (Homo sapiens, UniProt O00141); experiment: Two-electrode voltage clamp of ENaC current in oocytes coexpressing h-sgk; type: cell-based; settings: for activation of ENaC (Na+ channel current) by h-sgk: oocytes coexpressing ENaC and h-sgk, treated with kinase inhibitor, FIG. 4
T1 construct: expressed in transfected cells; host or cells: Xenopus laevis oocytes (cRNA injection)
T1 sequence (O00141 1-431): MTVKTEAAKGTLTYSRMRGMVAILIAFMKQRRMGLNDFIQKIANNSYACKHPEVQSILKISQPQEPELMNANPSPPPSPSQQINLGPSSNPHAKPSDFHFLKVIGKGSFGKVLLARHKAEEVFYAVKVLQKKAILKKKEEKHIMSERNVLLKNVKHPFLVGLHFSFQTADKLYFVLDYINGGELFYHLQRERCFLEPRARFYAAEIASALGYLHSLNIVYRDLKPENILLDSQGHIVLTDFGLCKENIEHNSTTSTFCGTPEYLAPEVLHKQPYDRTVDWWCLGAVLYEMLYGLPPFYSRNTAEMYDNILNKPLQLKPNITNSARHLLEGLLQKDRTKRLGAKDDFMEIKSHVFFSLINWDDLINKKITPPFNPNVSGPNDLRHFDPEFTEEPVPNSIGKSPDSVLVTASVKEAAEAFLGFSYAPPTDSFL
Description: as §2

Molecule: C[C@H](CCC(=O)O)C[C@H](C)C[C@H](C)C(=O)/C=C(\O)[C@H](C)C[C@H](C)C/C=C/[C@@H](C)[C@@H](O)[C@@H](C)[C@@H](O)C[C@@H]1CC[C@@](C)([C@H]2CC[C@@](C)([C@@H](C)O)O2)O1 [ionomycin]
expression of h-sgk (h-sgk expression): likewise stimulate

Molecule: NS(=O)(=O)c1cc(C(=O)O)c(NCc2ccco2)cc1Cl [furosemide]
effect of TGFβ1 on biglycan expression in the presence of the NKCC inhibitor (biglycan expression): completely suppressed
increased expression of the matrix proteins in fibroblasts (biglycan expression; fibroblasts): can be suppressed
Na+ influx in NKCC-injected oocytes (NKCC; NKCC alone, without h-sgk, FIG. 3 top): not inhibited
increase in Na+ influx on coexpression of h-sgk with NKCC (NKCC; oocytes coexpressing h-sgk and NKCC, FIG. 3 below): completely suppressed

Molecule: CN[C@@H]1C[C@H]2O[C@@](C)([C@@H]1OC)n1c3ccccc3c3c4c(c5c6ccccc6n2c5c31)C(=O)NC4 [staurosporine]
activation of ENaC (Na+ channel current) by h-sgk (h-sgk): suppresses; also recorded: completely to suppress

Molecule: CCCCCCCCCC(=O)O[C@@H]1[C@@H](C)[C@@]2(O)[C@@H](C=C(CO)C[C@@]3(O)C(=O)C(C)=C[C@@H]23)[C@@H]2C(C)(C)[C@]12OC(=O)CCCCCCCCC [PDD, 4-alpha-phorbol 12,13-didecanoate]
expression of h-sgk (h-sgk expression): likewise stimulate

Molecule: COc1ccc2c(c[n+](C)c3c4cc5c(cc4ccc23)OCO5)c1OC [chelerythrine]
activation of ENaC (Na+ channel current) by h-sgk (h-sgk): suppresses; also recorded: completely to suppress

Molecule: TGFβ1: tumor growth factor β1
expression of biglycan (biglycan expression): stimulated
expression of h-sgk (h-sgk expression): stimulated

Molecule: CCCCNc1cc(C(=O)O)cc(S(N)(=O)=O)c1Oc1ccccc1 [bumetanide]
effect of TGFβ1 on biglycan expression in the presence of the NKCC inhibitor (biglycan expression): almost completely suppressed

stimulating effect of h-sgk coexpression on the ENaC-mediated Na+ current (h-sgk; coexpression of the trans-dominant inhibitory kinase in oocytes, FIG. 5): can be suppressed
B1: trans-dominant inhibitory kinase: h-sgk modified by mutation: lysine in position 127 replaced by arginine (K127R); suppresses the catalytic function (protein, UniProt O00141 1-431, looked up, variant K127R)
Serine/threonine-protein …: T1 sequence (O00141 1-431) with K127R
